Laboratory results as given in US11786555B2, “RAR selective agonists in combination with immune modulators for cancer immunotherapy” (IO THERAPEUTICS, INC., priority 2017, dated 2023).

Columns and labels:
BM stromal cells = test: stromal Cyp26a1 upregulation by MM cells in coculture; type: cell-based, mouse; conditions: coculture with MM cells
Description: (§1) qRT-PCR. Total RNA was extracted using the RNeasy Mini Kit (QIAGEN) according to the manufacturer's instructions. cDNA was synthesized by reverse transcription using the iScript cDNA Synthesis Kit (Bio-Rad). qRT-PCR was performed with iTaq SYBR Green Supermix (Bio-Rad) using sequence specific primers. Gene expression was normalized to GAPDH, and relative quantification was calculated using ΔΔCt. All experiments were performed in duplicate and run on the Bio-Rad CFX96 machine.
To confirm the role of paracrine Hedgehog on this interaction, smoothened (Smo), a membrane receptor that transduces SHH signaling, was knocked out at the genomic level in the mesenchymal compartment. For this, BM mesenchymal cells derived from Smo^fl/fl mice were transduced with a retroviral vector encoding Cre recombinase (Smo-KO stroma). Mouse Smo^fl/fl stromal cells transduced with an empty retroviral vector were used as a control (WT stroma). The transduced BM stromal cells were cocultured with MM cells for 24 hr.

OCI-AML3 cells = test: CFU experiments, off and on stroma; type: cell-based; conditions: 10^−6 M ATRA, IRX5183, or 10^−7 M AM80
Excerpt: (§2) Data across three independent experiments.

NB4 cells = test: CFU experiments, off and on stroma; type: cell-based; conditions: 10^−7 M ATRA, IRX5183, or 10^−8 M AM80
Excerpt: as §2

Kasumi-1 cells = test: CFU experiments, off and on stroma; type: cell-based; conditions: 10^−6 M ATRA, IRX5183, or 10^−7 M AM80
Excerpt: as §2

[1] = tested on: FLT3/ITD acute myeloid leukemia (AML) cells; conditions: cited from earlier work
[2] = tested on: relapse/refractory patients; conditions: in combination with BTZ; cited from earlier work
[3] = tested on: naive CD4+ CD25− FoxP3− cells; test: in vitro Treg cell differentiation (FoxP3-GFP, flow cytometry); type: cell-based, mouse; conditions: data not shown
Description: (§3) To determine whether a RARα agonist could affect T cell differentiation, T cells were incubated with a RARα agonist to determine its effect on Foxp3 expression. Naive CD4^+ CD25^− FoxP3^− cells were purified from a Foxp3-GFP mouse using flow cytometry by sorting and isolating based upon a GFP^− phenotype. These cells were activated polyclonally with αCD3 in vitro in the presence of IL-2 and TGF-β. These cells were then cultured in media with various concentrations of compound IRX5183 (a RARα agonist) and the expression of FoxP3-GFP was analyzed by flow cytometry. The RARα agonist compound IRX5183 enhanced differentiation of immunosuppressive Treg cells and inhibited differentiation of inflammatory TH17 cells from naïve T cells in vitro (Table 2).

[4] = tested on: naive CD4+ CD25− FoxP3− cells; test: in vitro Th17 cell differentiation; type: cell-based, mouse; conditions: in vitro, data not shown
Description: as §3

CD4+ T cells = test: in vivo T cell differentiation in mice (blood and spleen); set-up: species or system mouse; conditions: in vivo, data not shown
Description: To expand on the finding above, the in vivo effects of a RARα agonist on T cell differentiation was evaluated in a mouse model. Mice were treated with 100 μg of compound IRX5183 or an equivalent volume of DMSO (vehicle control) every other day for 10 days. Lymphocytes from the blood and spleen were then isolated and FoxP3 expression in CD4^+ T cells was assessed.

[5] = tested on: H929 cells and primary CD138+ MM cells; test: clonogenic or cellular recovery of MM cells after BTZ treatment; type: cell-based, human; conditions: absence of stroma, 1 μM for 5 days, then BTZ 2.5 nM
Description: FIG. 4A-B depicts the clonogenic recovery (CFU) of H929 cells (FIG. 4A) or cellular recovery of primary CD138+ MM cells from 3 different patient samples (FIG. 4B). MM cells were treated with bortezomib (BTZ; 2.5 nM) for 48 hours after being incubated for 5 days either in the absence of stroma (Liquid), with or without the pan-RAR inhibitor AGN (1 μM), or in the presence of BM mesenchymal cells (Stroma), with or without the CYP26 inhibitor R115 (1 μM) or the CYP26-resistant retinoid IRX (1 μM). Clonogenic or cellular recovery was normalized to each condition in the absence of BTZ.
(§4) Coculture experiments. 24-well plates were coated with 0.1% gelatin in PBS for 30 min at 37° C. The gelatin solution was removed, and the stromal cells were cultured overnight at a density of 5×10^4 cells/well to obtain a confluent monolayer. At that time, MM cell lines or primary MM cells (1×10^5 in 2 ml) were added to the stroma cultures. The stroma cocultures were incubated at 37° C. in RPMI containing 10% FCS, L-glutamine, and P/S, with or without AGN194310 (1 μM for 5 days), R115866 (1 μM for 5 days), IRX5183 (1 μM for 5 days), or BTZ (2.5 nM for 48 hr).
Clonogenic assays. After treatment, MM cells were collected, washed with PBS, and plated at a density of 5,000 cells/ml in 1 ml of 1.32% methylcellulose supplemented with 30% FBS, 10% BSA, L-glutamine, P/S, and 0.1 mM β-ME. Cells were plated in triplicate in 35-mm culture dishes, incubated at 37° C., and scored for the presence of colonies 14 days later.
A RA-low microenvironment induces BTZ resistance. To determine whether decreased retinoid signaling contributes to BTZ resistance within the BM niche, MM cell lines and MM CD138+ primary cells were incubated with BM stroma for 5 days, followed by BTZ treatment.

MM cells = test: surface CD138 expression of MM cells by flow cytometry; type: cell-based, human; conditions: absence of stroma, 1 μM
Description: as §4
Flow cytometry. Following treatment, MM cells were collected, washed with PBS, and stained for 15 min at room temperature with phycoerythrin-conjugated (PE-conjugated) anti-CD138. Cells were washed to remove unbound antibody and evaluated in a FACSCalibur system (BD Biosciences). Stromal cells were identified by GFP expression, and viable cells were identified using 7-aminoactinomycin D (7-AAD). To calculate cell numbers, live GFP-cells were normalized to calibration beads.
Expression of CD138 is a hallmark of normal PC differentiation as well MM PCs.

[6] = tested on: H929 cells and CD138+ primary MM cells; test: qRT-PCR of B cell and PC markers in MM cells, liquid or BM stroma co-culture; type: cell-based, human; conditions: absence of stroma (Liquid), 1 μM for 5 days
Description: FIG. 3A-H depicts the relative concentration of plasma markers BCL6 (FIG. 3A and E), BLIMP-1 (FIG. 3B and F), XBPS-1 (FIG. 3C and G), and CHOP (FIG. 3D and H) in multiple myeloma (MM) cell lines H929 (FIG. 3A-D) or CD138+ MM cells from three different patient samples (FIG. 3E-H) incubated for 5 days either in the absence of stroma (Liquid), with or without AGN (RA receptor antagonist AGN194310, 1 μM), or co-cultured with BM mesenchymal cells (Stroma), with or without R115 (CYP26 inhibitor R115866, 1 μM) or IRX (CYP26-resistant retinoid IRX5183, 1 μM). Expression in untreated liquid conditions was set at 1. Data are representative of 3 independent experiments with similar results and represent the mean ±SEM. *P≤0.05 and **P≤0.01, by repeated-measures 1-way ANOVA for determination of statistical significance between groups; P values were corrected for multiple comparisons using Dunnett's test. Ctrl, control; max, maximum.
as §4, §1
The BM microenvironment (also called “niche”) limits PC differentiation by modulating retinoid signaling. A population of MM progenitors, phenotypically similar to B cells, is intrinsically resistant to BTZ and contributes to MRD and relapse. To investigate whether the BM niche plays a role in determining the phenotype of MM cells, the mRNA expression of B cell and PC markers in MM H929 cell lines (FIG. 3A-D) and MM CD138+ primary cells (FIG. 3E-H) was analyzed following co-culture with mouse BM stroma using human-specific primers. […] In contrast, co-culture of MM cells with BM stroma decreased the mRNA expression of B lymphocyte-induced maturation protein 1 (BLIMP1) and spliced X box-binding protein 1 (XBP1s) (FIG. 3B, C, F, G), which are critical mediators of PC differentiation.
The BM niche regulates hematopoietic stem cell (HSC) differentiation by expressing the retinoid-inactivating enzyme CYP26. CYP26 enzymes were highly expressed in BM mesenchymal cells, while their expression was barely detectable in MM cells. Since retinoid signaling promotes PC differentiation and potentiates Ig secretion, it was determined whether stromal CYP26 is responsible for inducing a B cell phenotype in MM cells. To this end, co-culture conditions were treated with the CYP26 inhibitor R115866 (R115) or the CYP26-resistant RA receptor α-selective (RARα-selective) retinoid IRX5183 (IRX).

In the case of `CC1=C2C[C@H]3[C@@H](CC=C4C[C@@H](O)CC[C@@]43C)[C@@H]2CC[C@]12O[C@@H]1C[C@H](C)CN[C@H]1[C@H]2C` [cyclopamine], the “stromal Cyp26a1 upregulation by MM cells” value (BM stromal cells) is reported as “partially overcame stromal Cyp26a1 upregulation by MM cells”.
With `CC1(C)CCC(C)(C)c2cc(NC(=O)c3ccc(C(=O)O)cc3)ccc21` [AM80, 4-[(5,6,7,8-tetrahydro-5,5,8,8-tetramethyl-2-naphthalenyl)carbamoyl]benzoic acid] the “clonogenic growth (CFU), differentiation and elimination of AML” value (OCI-AML3 cells) was “decrease in clonogenic growth compared to control”, the “clonogenic growth (CFU), differentiation and elimination of AML” value (NB4 cells) was “decrease in clonogenic growth compared to control” and the “clonogenic growth (CFU), differentiation and elimination of AML” value (Kasumi-1 cells) was “decrease in clonogenic growth compared to control”. For the same molecule, the “differentiation and sensitivity to FLT3 inhibitors” value [1] was “differentiates FMS-like tyrosine kinase 3/internal tandem duplication (FLT3/ITD) acute myeloid leukemia (AML) cells and increase their sensitivity to FLT3 inhibitors”.
In the case of `c1cc(CN2CCCNCCNCCCNCC2)ccc1CN1CCCNCCNCCCNCC1` [plerixafor], the response rates [2] is given as “improved response rates”.
With `CCOc1c(Br)cc(C(=O)Nc2ccc(C(=O)O)cc2)cc1C(=O)c1ccc(C)cc1` [AGN196996] the Treg cell numbers [3] was “decreases Treg cell numbers”, the Th17 cell numbers [4] was “increases Th17 cell numbers” and the Th17 cell numbers (CD4+ T cells) was “increases Th17 cell numbers”. For the same molecule, the Treg cell numbers (CD4+ T cells) was “decreases Treg cell numbers”.
In the case of `CCc1ccc(C2=CC(C)(C)Sc3ccc(C#Cc4ccc(C(=O)O)cc4)cc32)cc1` [AGN194310], the “effect on BTZ sensitivity” value [5] is reported as “decreasing BTZ sensitivity”, the “surface CD138 expression” value (MM cells) is reported as “markedly decreased” and the “mRNA expression of B cell and PC markers (BCL6, BLIMP1, XBP1s, CHOP)” value [6] is reported as “mimicked the changes induced by BM stromal cells”.
